Experiments:
aorta rings = assay: Vessel-relaxing action in vitro (aorta rings, phenylephrine contraction); conditions: Oryctolagus cuniculus, concentration required to reduce phenylephrine-induced contraction of rabbit aorta rings by 50%
Description: B-1. Vessel-relaxing Action in vitro
Rabbits are stunned with a blow on the back of the neck and exsanguinated. The aorta is removed, freed from adhering tissue, separated into rings with a width of 1.5 mm, and placed individually, with preloading, in 5-ml organ baths with carbogen-gassed Krebs-Henseleit solution at 37° C. with the following composition (mM in each case): sodium chloride: 119; potassium chloride: 4.8; calcium chloride dihydrate: 1; magnesium sulphate heptahydrate: 1.4; potassium dihydrogen phosphate: 1.2; sodium hydrogen carbonate: 25; glucose: 10. The contraction force is recorded with Statham UC2 cells, amplified and digitized via an A/D converter (DAS-1802 HC, Keithley Instruments Munich) and recorded in parallel on a continuous-line recorder. To produce contraction, phenylephrine is added to the bath cumulatively in increasing concentration. After several control cycles, the test substance is added in increasing dosage in each subsequent pass and the level of contraction is compared with the level of contraction reached in the immediately preceding pass. This is used for calculating the concentration that is required to reduce the level of the control value by 50% (IC50 value). The standard application volume is 5 μl, and the proportion of DMSO in the bath solution corresponds to 0.1%.

[1] = target: T1, recombinant guanylate cyclase reporter cell line (Rattus norvegicus, UniProt P19686+P20595); assay: Action on recombinant guanylate cyclase reporter cell line; format: cell-based
T1 construct: expressed in transfected cells
T1 sequence (P20595 1-619): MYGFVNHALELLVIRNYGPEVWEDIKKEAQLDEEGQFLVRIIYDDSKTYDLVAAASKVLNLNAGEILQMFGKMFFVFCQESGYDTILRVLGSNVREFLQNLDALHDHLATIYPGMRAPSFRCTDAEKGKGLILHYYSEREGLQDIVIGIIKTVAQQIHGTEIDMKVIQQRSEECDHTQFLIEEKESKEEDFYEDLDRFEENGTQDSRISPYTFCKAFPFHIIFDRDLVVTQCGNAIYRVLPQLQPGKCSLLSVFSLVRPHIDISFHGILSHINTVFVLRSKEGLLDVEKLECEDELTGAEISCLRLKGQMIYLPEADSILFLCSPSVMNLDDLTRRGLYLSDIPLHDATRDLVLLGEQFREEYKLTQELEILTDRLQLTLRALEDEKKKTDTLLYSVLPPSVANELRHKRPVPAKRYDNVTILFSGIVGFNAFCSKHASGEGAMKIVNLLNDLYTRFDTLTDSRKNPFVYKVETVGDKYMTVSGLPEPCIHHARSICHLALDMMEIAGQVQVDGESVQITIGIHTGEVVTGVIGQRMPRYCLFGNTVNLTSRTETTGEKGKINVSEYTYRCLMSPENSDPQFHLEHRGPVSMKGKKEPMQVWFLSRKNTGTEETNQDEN
T1 sequence (P19686 1-690): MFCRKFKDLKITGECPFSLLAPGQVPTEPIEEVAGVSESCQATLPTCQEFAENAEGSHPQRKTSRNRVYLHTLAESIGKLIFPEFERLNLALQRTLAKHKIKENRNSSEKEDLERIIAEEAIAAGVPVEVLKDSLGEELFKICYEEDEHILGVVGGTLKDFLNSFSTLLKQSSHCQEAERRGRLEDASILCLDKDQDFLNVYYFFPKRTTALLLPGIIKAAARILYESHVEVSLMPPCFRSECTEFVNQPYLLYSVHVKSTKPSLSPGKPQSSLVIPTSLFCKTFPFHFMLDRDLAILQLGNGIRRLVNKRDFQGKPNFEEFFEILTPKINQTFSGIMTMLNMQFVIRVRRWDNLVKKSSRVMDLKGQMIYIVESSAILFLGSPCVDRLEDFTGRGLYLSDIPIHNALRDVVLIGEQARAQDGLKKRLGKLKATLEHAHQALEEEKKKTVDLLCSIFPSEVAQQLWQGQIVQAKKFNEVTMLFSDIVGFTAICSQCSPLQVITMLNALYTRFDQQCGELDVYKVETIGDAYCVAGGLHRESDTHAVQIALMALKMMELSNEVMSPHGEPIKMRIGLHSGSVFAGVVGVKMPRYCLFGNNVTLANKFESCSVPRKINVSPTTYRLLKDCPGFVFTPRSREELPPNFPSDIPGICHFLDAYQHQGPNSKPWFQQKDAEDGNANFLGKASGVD
Description: B-2. Action on Recombinant Guanylate Cyclase Reporter Cell Line
The cellular action of the compounds according to the invention is determined on a recombinant guanylate cyclase reporter cell line, as described in F. Wunder et al., Anal. Biochem. 339, 104-112 (2005).

[2] = target: T2, human phosphodiesterase 5 (PDE-5) (Homo sapiens, UniProt O76074); assay: Inhibition of human phosphodiesterase 5 (PDE-5), SPA assay; format: biochemical; conditions: PDE-5 preparation from human platelets, [8-3H]cGMP substrate
T2 construct: PDE-5 preparations are obtained from human platelets by lysis; from tissue; host or cells: human platelets
Procedure, shortened: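 PDE-5 partially purified from human platelets by Mono Q chromatography, diluted so under 70% of [8-3H]cGMP (0.025 μCi) converted. Compounds at 4 μM to 0.0018 μM final, Tris-HCl pH 7.5 with MgCl2, 60 min at room temperature. Yttrium SPA beads stop reaction; IC50 from concentration–inhibition plots.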

| Structure (SMILES) | IC50 (aorta rings) [nM] | MEC (minimal effective concentration) [1] [μm] | IC50 [2] [nM] |
| --- | --- | --- | --- |
| CC1(C)C(=O)Nc2nc(-c3nn(Cc4ncccc4F)c4ncc(F)cc34)nc(N3CC(F)C3)c21 [Example 15, 4-(3-Fluoroazetidin-1-yl)-2-{5-fluoro-1-[(3-fluoropyridin-2-yl)methyl]-1H-pyrazolo[3,4-b]pyridin-3-yl}-5,5-dimethyl-5,7-dihydro-6H-pyrrolo[2,3-d]pyrimidin-6-one] | 453 | 1.0 | 430 |
| CC1(C)C(=O)Nc2nc(-c3nn(Cc4ncccc4F)c4ncc(F)cc34)nc(NCC(F)(F)F)c21 [Example 16, 2-{5-Fluoro-1-[(3-fluoropyridin-2-yl)methyl]-1H-pyrazolo[3,4-b]pyridin-3-yl}-5,5-dimethyl-4-[(2,2,2-trifluoroethyl)amino]-5,7-dihydro-6H-pyrrolo[2,3-d]pyrimidin-6-one] | 126 | 0.1 | 13 |
| CC1(C)C(=O)Nc2nc(-c3nn(Cc4ncccc4F)c4ncc(F)cc34)nc(NCC3CC3)c21 [Example 17, 4-[(Cyclopropylmethyl)amino]-2-{5-fluoro-1-[(3-fluoropyridin-2-yl)methyl]-1H-pyrazolo[3,4-b]pyridin-3-yl}-5,5-dimethyl-5,7-dihydro-6H-pyrrolo[2,3-d]pyrimidin-6-one] | 200 | 0.1 | 24 |
| CC1(C)C(=O)Nc2nc(-c3nn(Cc4ccccc4F)c4ncc(F)cc34)nc(NCCCC(F)(F)F)c21 [Example 18, 2-[5-Fluoro-1-(2-fluorobenzyl)-1H-pyrazolo[3,4-b]pyridin-3-yl]-5,5-dimethyl-4-[(4,4,4-trifluorobutyl)amino]-5,7-dihydro-6H-pyrrolo[2,3-d]pyrimidin-6-one] | 2720 | 0.03 | 120 |
| CC1(C)C(=O)Nc2nc(-c3nn(Cc4ccccc4F)c4c3CCC4)nc(NCC(F)(F)F)c21 [Example 19, 2-[1-(2-Fluorobenzyl)-1,4,5,6-tetrahydrocyclopenta[c]pyrazol-3-yl]-5,5-dimethyl-4-[(2,2,2-trifluoroethyl)amino]-5,7-dihydro-6H-pyrrolo[2,3-d]pyrimidin-6-one] | 1280 | 0.3 | 280 |
| CC1(C)C(=O)Nc2nc(-c3nn(Cc4ccccc4F)c4c3CCC4)nc(NCCC(F)(F)F)c21 [Example 20, 2-[1-(2-Fluorobenzyl)-1,4,5,6-tetrahydrocyclopenta[c]pyrazol-3-yl]-5,5-dimethyl-4-[(3,3,3-trifluoropropyl)amino]-5,7-dihydro-6H-pyrrolo[2,3-d]pyrimidin-6-one] | 1870 | 0.3 | 900 |
| CCN1CCN(c2nc(-c3nn(Cc4ccccc4F)c4ncccc34)nc3c2C(C)(C)C(=O)N3)C1=O [Example 21, 4-(3-Ethyl-2-oxoimidazolidin-1-yl)-2-[1-(2-fluorobenzyl)-1H-pyrazolo[3,4-b]pyridin-3-yl]-5,5-dimethyl-5,7-dihydro-6H-pyrrolo[2,3-d]pyrimidin-6-one] | 100 | 0.03 | 400 |
| CC1(C)C(=O)Nc2nc(-n3nc(Cc4ccccc4F)c4ccccc43)nc(O)c21 [Example 22, 2-[3-(2-Fluorobenzyl)-1H-indazol-1-yl]-4-hydroxy-5,5-dimethyl-5,7-dihydro-6H-pyrrolo[2,3-d]pyrimidin-6-one] | 530 | 0.03 | 580 |
| Cc1cc(C)n(-c2nc(-c3nn(Cc4ccccc4F)c4ncccc34)nc3c2C(C)(C)C(=O)N3)n1 [Example 23, 4-(3,5-Dimethyl-1H-pyrazol-1-yl)-2-[1-(2-fluorobenzyl)-1H-pyrazolo[3,4-b]pyridin-3-yl]-5,5-dimethyl-5,7-dihydro-6H-pyrrolo[2,3-d]pyrimidin-6-one] | 2860 | 0.1 | 1600 |
| CC1(C)C(=O)Nc2nc(-c3nn(Cc4ccccc4F)c4ncccc34)nc(-n3cccc(F)c3=O)c21 [Example 24, 2-[1-(2-Fluorobenzyl)-1H-pyrazolo[3,4-b]pyridin-3-yl]-4-(3-fluoro-2-oxopyridin-1(2H)-yl)-5,5-dimethyl-5,7-dihydro-6H-pyrrolo[2,3-d]pyrimidin-6-one] | 573 | 0.1 | 100 |
| CC1(C)C(=O)Nc2nc(-c3nn(Cc4ccccc4F)c4ncccc34)nc(N3CC(C(F)(F)F)CC3=O)c21 (stereo not drawn) [Example 25, 2-[1-(2-Fluorobenzyl)-1H-pyrazolo[3,4-b]pyridin-3-yl]-5,5-dimethyl-4-[2-oxo-4-(trifluoromethyl)pyrrolidin-1-yl]-5,7-dihydro-6H-pyrrolo[2,3-d]pyrimidin-6-one] | 501 | 0.1 | 320 |
| CC1(C)C(=O)Nc2nc(-c3nn(Cc4ccccc4F)c4ncccc34)nc(-n3cc(O)cn3)c21 [Example 26, 2-[1-(2-Fluorobenzyl)-1H-pyrazolo[3,4-b]pyridin-3-yl]-4-(4-hydroxy-1H-pyrazol-1-yl)-5,5-dimethyl-5,7-dihydro-6H-pyrrolo[2,3-d]pyrimidin-6-one] | 674 | 0.03 | 12 |
| CC1(C)C(=O)Nc2nc(-c3nn(Cc4ccccc4F)c4ncccc34)nc(Oc3cn[nH]c3)c21 [Example 27, 2-[1-(2-Fluorobenzyl)-1H-pyrazolo[3,4-b]pyridin-3-yl]-5,5-dimethyl-4-(1H-pyrazol-4-yloxy)-5,7-dihydro-6H-pyrrolo[2,3-d]pyrimidin-6-one] | 1470 | 0.1 | 4 |
| CC(O)c1ccn(-c2nc(-c3nn(Cc4ccccc4F)c4ncccc34)nc3c2C(C)(C)C(=O)N3)n1 (stereo not drawn) [Example 28, 2-[1-(2-Fluorobenzyl)-1H-pyrazolo[3,4-b]pyridin-3-yl]-4-[3-(1-hydroxyethyl)-1H-pyrazol-1-yl]-5,5-dimethyl-5,7-dihydro-6H-pyrrolo[2,3-d]pyrimidin-6-one] | 98 | 0.3 | 110 |
| CC1(C)C(=O)Nc2nc(-c3nn(Cc4ccccc4F)c4ncccc34)nc(-n3cc(C(F)(F)F)cn3)c21 [Example 29, 2-[1-(2-Fluorobenzyl)-1H-pyrazolo[3,4-b]pyridin-3-yl]-5,5-dimethyl-4-[4-(trifluoromethyl)-1H-pyrazol-1-yl]-5,7-dihydro-6H-pyrrolo[2,3-d]pyrimidin-6-one] | 11400 | 1.0 | > 4000 |
